Where two headings read alike, the source gives them in different places. Square brackets hold non-standard residues; d marks the D form. Peptide text beside a SMILES is read from it. * marks the point of attachment. X3 = O=C1CN2CCN3CC(=O)O[C]4(C3)CN(CC(=O)*)CCN3CC(=O)O[C](C2)(C3)[Lu]4[O]1; X4 = O=C1CN2CCN3CC(=O)O[C]4(C3)CN(CC(=O)*)CCN3CC(=O)O[C](C2)(C3)[Ga]4[O]1; X2 = O=C(O)CN1CCCN(CC(=O)O)CCN(CC(=O)*)CCCN(CC(=O)O)CC1; boroPro = OB(O)[C@@H]1CCCN1*
Assays:
recombinant human FAP = recombinant human FAP (Homo sapiens (Human), UniProt Q12884); experiment: In vitro enzyme IC50 assay, FAP (Example 16); assay type: biochemical; settings: 10 min preincubation at 25° C.; Z-Gly-Pro-AMC
Procedure: Biological Materials: For the in vitro IC50 determination assays, recombinant human DPPIV, DPP9, FAP, and PREP were purchased from R&D Systems, and DPP8 was from Biomol International. Buffer systems used were A (25 mM Tris, pH 8.0), B (50 mM Tris, pH 7.5), C (50 mM Tris, 140 mM NaCl, pH 7.5), D (25 mM Tris, 250 mM NaCl, pH 7.5), and E (20 mM Tris, 20 mM KCl, pH 7.4). […] Substrate Specificity Assay. Peptide libraries (0.21 mM) were incubated for 24 h with 1 nM FAP in buffer E at 37° C. The reaction was quenched by the addition of 1.2 N HCl. The samples were analyzed by reverse-phase HPLC-MS on a Thermo Finnigan LCQ Duo, quantifying the peaks in the resulting base peak chromatograms. Relative cleavage values were determined by comparing the postquench abundance of intact peptides to those in the initial library.
In Vitro Enzyme IC50 Assays. Enzymatic activity of DPPIV, DPP8, DPP9, FAP, and PREP was measured at 25° C. on a Molecular Devices M2e multidetection microtiter plate reader, monitoring the fluorescence at an excitation wavelength of 380 nm and an emission wavelength of 460 nm. The substrate was either H-Gly-Pro-AMC for the DPPIV, DPP8, and DPP9 assays or Z-Gly-Pro-AMC for the FAP and PREP assays. […] The final enzyme concentrations were 0.1, 0.8, 0.4, 1.2, and 0.6 nM for DPPIV, DPP8, DPP9, FAP, and PREP, respectively. […] Those prepared in pH 2.0 solution were preincubated at 25° C. for 4 h prior to dilution. Immediately prior to the commencement of the experiment, the 100 mM stocks were further diluted to 10^-3 M in the appropriate assay buffer, from which 1:10 serial dilutions were prepared. All inhibitors were tested in triplicate.

[1] = target: recombinant human fibroblast activation protein (FAP) (Homo sapiens (Human), UniProt Q12884); experiment: In vitro assay fibroblast activation protein IC50 (Example 21); assay type: biochemical
Procedure: (§1) The purpose of this assay is to determine the IC50 of various inhibitors against recombinant human dipeptidyl peptidase IV (DPPIV), fibroblast activation protein (FAP) or prolyl oligopeptidase (PREP).
(§2) The assays are conducted in the following steps: • 1 Dissolve the compound in DMSO to a final concentration of 100 mM. From this, prepare a 1 mM stock at pH 7.5 in 50 mM Tris, 140 mM NaCl Buffer (FAP)/pH 7.5 in 25 mM Tris, 250 mM NaCl Buffer/[…]. • 2. Serial dilute (1:10) the 1 mM compound stocks prepared previously into the appropriate assay buffer (FAP: 50 mM Tris, 140 mM NaCl, pH 7.5/PREP: 25 mM Tris, 0.25 M NaCl, pH 7.5/DPPIV: 25 mM Tris, pH 8.0) to one row of a 96-well plate. • 3. […] Dilute the enzymes into their appropriate assay buffers. The final enzyme concentrations should be 0.1, 1.2, and 0.6 nM for DPPIV, FAP and PREP respectively. Add 180 μL to each well needed in columns 2-10. Column 1(A,B,C) should be prepared with 200 μl of appropriate assay buffer as control. Column 1(D,E,F,G,H) should be prepared with 20 μl of appropriate assay buffer and 180 ul enzyme as no inhibitor control. • 5. Add 20 μL of the compound of interest from the dilution plate prepared in step 2 to columns 2-10 of the assay plate where appropriate. Each sample should be tested in triplicate. Allow this to incubate for 10 minutes at room temperature, shaking the plate for the first two minutes. • 6. Add 10 μL of 20× substrate prepared in step 3 to each well and allow this to incubate for 15 minutes at room temperature, shaking the plate for the first two minutes. • 7. Read the fluorescence at λex: 380, λem: 460. (DPcore=[dAla|dSer|Gly]-[boroPro|Pro-nitrile], XXaa=alpha-amino acid)

[2] = target: recombinant human prolyl oligopeptidase (PREP) (Homo sapiens (Human), UniProt P48147); experiment: In vitro assay prolyl oligopeptidase IC50 (Example 21); assay type: biochemical
Procedure: as §1, §2

[3] = target: recombinant human dipeptidyl peptidase IV (DPPIV) (Homo sapiens (Human), UniProt P27487); experiment: In vitro assay dipeptidyl peptidase IV IC50 (Example 21); assay type: biochemical
Procedure: as §1, §2

[4] = Degradation in aqueous solution of pH about 3 during HPLC purification and lyophilization; settings: during HPLC purification and subsequent lyophilization

recombinant human dipeptidyl peptidase IV (DPPIV), sequence (P27487 whole entry): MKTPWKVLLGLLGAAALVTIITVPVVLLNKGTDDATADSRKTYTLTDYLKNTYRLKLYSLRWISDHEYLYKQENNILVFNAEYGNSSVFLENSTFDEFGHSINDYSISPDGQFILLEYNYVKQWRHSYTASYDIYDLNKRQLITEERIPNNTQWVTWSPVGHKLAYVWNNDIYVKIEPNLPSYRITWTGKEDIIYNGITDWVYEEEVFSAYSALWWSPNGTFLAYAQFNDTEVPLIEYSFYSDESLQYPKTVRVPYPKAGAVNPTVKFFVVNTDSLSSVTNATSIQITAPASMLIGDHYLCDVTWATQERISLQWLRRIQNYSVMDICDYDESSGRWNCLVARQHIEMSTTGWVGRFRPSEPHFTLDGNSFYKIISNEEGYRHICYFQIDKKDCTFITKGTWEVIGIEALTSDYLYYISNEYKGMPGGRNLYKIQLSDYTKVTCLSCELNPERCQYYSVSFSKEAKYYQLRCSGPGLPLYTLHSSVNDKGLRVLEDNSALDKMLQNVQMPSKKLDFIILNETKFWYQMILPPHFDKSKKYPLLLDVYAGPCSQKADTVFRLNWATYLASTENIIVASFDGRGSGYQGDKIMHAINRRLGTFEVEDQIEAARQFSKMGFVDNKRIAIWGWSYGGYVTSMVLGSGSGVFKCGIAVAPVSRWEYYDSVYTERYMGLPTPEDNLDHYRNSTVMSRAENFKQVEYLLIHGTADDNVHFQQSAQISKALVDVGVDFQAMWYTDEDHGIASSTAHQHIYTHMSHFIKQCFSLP
recombinant human FAP, sequence (Q12884 whole entry): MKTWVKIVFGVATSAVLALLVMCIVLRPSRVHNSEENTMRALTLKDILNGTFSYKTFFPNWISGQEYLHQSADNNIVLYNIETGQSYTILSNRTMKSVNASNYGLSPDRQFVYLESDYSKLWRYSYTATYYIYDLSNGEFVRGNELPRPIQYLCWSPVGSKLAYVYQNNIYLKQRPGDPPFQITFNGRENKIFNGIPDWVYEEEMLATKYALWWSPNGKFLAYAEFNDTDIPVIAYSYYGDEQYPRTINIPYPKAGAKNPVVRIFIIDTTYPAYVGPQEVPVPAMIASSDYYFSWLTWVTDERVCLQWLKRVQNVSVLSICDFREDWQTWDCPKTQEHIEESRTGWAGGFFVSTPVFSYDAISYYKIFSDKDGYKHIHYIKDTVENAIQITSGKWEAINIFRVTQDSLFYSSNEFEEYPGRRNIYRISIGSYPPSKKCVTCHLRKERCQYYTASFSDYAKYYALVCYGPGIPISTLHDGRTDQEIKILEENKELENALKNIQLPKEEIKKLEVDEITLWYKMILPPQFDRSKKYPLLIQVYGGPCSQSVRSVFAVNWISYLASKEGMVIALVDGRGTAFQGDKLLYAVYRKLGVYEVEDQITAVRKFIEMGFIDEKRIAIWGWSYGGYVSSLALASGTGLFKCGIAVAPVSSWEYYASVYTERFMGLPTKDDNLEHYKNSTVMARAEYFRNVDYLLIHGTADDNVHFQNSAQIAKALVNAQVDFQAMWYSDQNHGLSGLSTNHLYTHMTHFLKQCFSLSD
recombinant human fibroblast activation protein (FAP), sequence (Q12884 whole entry): as above
recombinant human prolyl oligopeptidase (PREP), sequence (P48147 whole entry): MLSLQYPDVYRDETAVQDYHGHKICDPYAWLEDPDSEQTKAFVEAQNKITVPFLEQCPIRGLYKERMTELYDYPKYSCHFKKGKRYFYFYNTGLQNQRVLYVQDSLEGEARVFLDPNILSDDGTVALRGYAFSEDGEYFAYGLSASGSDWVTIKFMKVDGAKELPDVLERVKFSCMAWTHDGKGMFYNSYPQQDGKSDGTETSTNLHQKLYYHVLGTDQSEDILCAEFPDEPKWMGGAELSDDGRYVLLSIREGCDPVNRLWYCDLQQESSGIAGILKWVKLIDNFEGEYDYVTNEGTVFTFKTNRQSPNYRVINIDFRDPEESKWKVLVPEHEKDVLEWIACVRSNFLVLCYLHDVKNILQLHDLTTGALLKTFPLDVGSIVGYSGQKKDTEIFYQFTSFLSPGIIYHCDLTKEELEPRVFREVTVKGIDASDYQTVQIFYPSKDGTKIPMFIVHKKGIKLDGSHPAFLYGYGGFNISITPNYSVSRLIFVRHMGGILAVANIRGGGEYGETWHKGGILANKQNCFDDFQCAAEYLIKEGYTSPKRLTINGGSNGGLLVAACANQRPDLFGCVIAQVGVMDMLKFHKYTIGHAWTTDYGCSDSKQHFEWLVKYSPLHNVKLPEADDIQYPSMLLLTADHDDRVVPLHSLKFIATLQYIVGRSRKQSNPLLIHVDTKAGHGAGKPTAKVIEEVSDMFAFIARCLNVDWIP

Compound | IC50 (recombinant human FAP) [nM] | IC50 [1] [nM] | IC50 ([2]; Z-Gly-Pro-AMC, 0.6 nM enzyme) [nM] | IC50 ([3]; Gly-Pro-AMC, 0.1 nM enzyme) [nM] | IC50 ([1]; Z-Gly-Pro-AMC, 1.2 nM enzyme) [nM] | other results
C[C@@H](NC(=O)c1ccc(NNC(=O)CN2CCN(CC(=O)O)CCN(CC(=O)O)CCN(CC(=O)O)CC2)cc1)C(=O)N1CCC[C@H]1B(O)O [4536B, DOTA-HyBz-D-Ala-boroPro] | 2.7 | – | – | – | – | –
C[C@@H](NC(=O)c1ccc(NNC(=O)CCCCCNC(=O)CN2CCN(CC(=O)O)CCN(CC(=O)O)CCN(CC(=O)O)CC2)cc1)C(=O)N1CCC[C@H]1B(O)O [6486S, DOTA-EACA-HyBz-D-Ala-boroPro] | 1.7 | – | – | – | – | –
C[C@@H](NC(=O)c1ccc(NNC(=O)CNC(=O)CN2CCN(CC(=O)O)CCN(CC(=O)O)CCN(CC(=O)O)CC2)cc1)C(=O)N1CCC[C@H]1B(O)O [6487S, DOTA-Gly-HyBz-D-Ala-boroPro] | 2.1 | – | – | – | – | –
C[C@@H](NC(=O)c1ccc(NNC(=O)CCNC(=O)CN2CCN(CC(=O)O)CCN(CC(=O)O)CCN(CC(=O)O)CC2)cc1)C(=O)N1CCC[C@H]1B(O)O [6488S, DOTA-betaAla-HyBz-D-Ala-boroPro] | 8.8 | 8.8 | – | – | – | –
C[C@@H](NC(=O)c1ccc(NNC(=O)CCCNC(=O)CN2CCN(CC(=O)O)CCN(CC(=O)O)CCN(CC(=O)O)CC2)cc1)C(=O)N1CCC[C@H]1B(O)O [6489S, DOTA-GABA-HyBz-D-Ala-boroPro] | 0.8 | – | – | – | – | –
CC(C)[C@H](NC(=O)CNC(=O)CNC(=O)CN1CCN2CC(=O)O[C]3(CN4CCN5CC(=O)O[C](C1)(C5)[Ga]3[O]C(=O)C4)C2)C(=O)N[C@H](C)C(=O)N1CCC[C@H]1B(O)O (stereo partly drawn) [6522GA-02] (X4-GGV[dA]-boroPro) | – | – | 19000 | > 100000 | 575 | –
CC(C)[C@H](NC(=O)CNC(=O)CNC(=O)CN1CCN2CC(=O)O[C]3(CN4CCN5CC(=O)O[C](C1)(C5)[Lu]3[O]C(=O)C4)C2)C(=O)N[C@H](C)C(=O)N1CCC[C@H]1B(O)O (stereo partly drawn) [6522LU] (X3-GGV[dA]-boroPro) | – | – | 19000 | > 100000 | 26 | –
CC(C)[C@H](NC(=O)CNC(=O)CNC(=O)CN1CCCN(CC(=O)O)CCN(CC(=O)O)CCCN(CC(=O)O)CC1)C(=O)N[C@@H](C)C(=O)N1CCC[C@H]1B(O)O [6522L] (X2-GGVA-boroPro) | – | – | 7.6 | 3400 | > 100000 | –
C[C@@H](NC(=O)c1ccc(CNC(=O)CN2CCN3CCN4CCN(CC2)CC(=O)[O][Ga]([O]C(=O)C3)[O]C(=O)C4)cc1)C(=O)N1CCC[C@H]1B(O)O [6555GA] | – | 55 | – | – | – | IC50 [2]: 3600 nM; IC50 [3]: > 100000 nM; degradation in aqueous solution [4]: did not observe any sign of degradation
C[C@@H](NC(=O)c1ccc(NC(=O)CN2CCN3CCN(CC(=O)O)CCN(CC2)CC(=O)[O][Cu][O]C(=O)C3)cc1)C(=O)N1CCC[C@H]1B(O)O [6572CU, DOTA[Cu(II)]-PABA-D-Ala-boroPro] | 12.6 | – | – | – | – | –
CC(C)[C@H](NC(=O)CNC(=O)CC[C@@H]1C(=O)[O][Lu]23[O]C(=O)CN4CCN(CCN1CCN(CC4)CC(=O)[O]2)CC(=O)[O]3)C(=O)N[C@H](C)C(=O)N1CCC[C@H]1B(O)O [6795DLU] | – | – | 10000 | > 100000 | 60 | –
CC(C)[C@H](NC(=O)CNC(=O)CC[C@H](C(=O)O)N1CCN(CC(=O)O)CCN(CC(=O)O)CCN(CC(=O)O)CC1)C(=O)N[C@H](C)C(=O)N1CCC[C@H]1B(O)O [6795D] | – | – | 7450 | > 100000 | 17 | –
C[C@@H](NC(=O)[C@H]1CC[C@H](CNC(=O)CN2CCN3CCN4CCN(CC2)CC(=O)[O][Ga]([O]C(=O)C3)[O]C(=O)C4)CC1)C(=O)N1CCC[C@H]1B(O)O [6952 GA] | – | – | 50000 | 80000 | 87 | –
C[C@@H](NC(=O)[C@H]1CC[C@H](CNC(=O)CN2CCN3CCN4CCN(CC2)CC(=O)[O][Lu]([O]C(=O)C3)[O]C(=O)C4)CC1)C(=O)N1CCC[C@H]1B(O)O [6952 LU] | – | – | 21000 | > 100000 | 14 | –
C[C@@H](NC(=O)c1ccc(NNC(=O)CN2CCN3CCN(CC(=O)O)CCN(CC2)CC(=O)[O][Cu][O]C(=O)C3)cc1)C(=O)N1CCC[C@H]1B(O)O [compound 6481, DOTA[Cu(II)]-HyBz-D-Ala-boroPro] | 10.3 | – | – | – | – | –
C[C@@H](NC(=O)c1ccc(NNC(=O)CCNC(=O)CN2CCN3CCN(CC(=O)O)CCN(CC2)CC(=O)[O][Cu][O]C(=O)C3)cc1)C(=O)N1CCC[C@H]1B(O)O [compound 6488, DOTA[Cu]-betaAla-HyBz-D-Ala-boroPro] | 34.3 | 34.3 | – | – | – | –
DOTA[(Cu(II)]-Ser-D-Ala-boroPro [6509CU] | 128 | – | – | – | 128 | –

Now from value to compound, other results behind:

IC50 (recombinant human FAP) [nM] | IC50 [1] [nM] | Compound | IC50 ([2]; Z-Gly-Pro-AMC, 0.6 nM enzyme) [nM] | IC50 ([3]; Gly-Pro-AMC, 0.1 nM enzyme) [nM] | IC50 ([1]; Z-Gly-Pro-AMC, 1.2 nM enzyme) [nM] | other results
– | 170 | C[C@@H](NC(=O)c1ccc(NN)nc1)C(=O)N1CCC[C@H]1B(O)O [compound 3860] | – | – | – | IC50 [2]: 9800 nM; IC50 [3]: > 100000 nM
– | 9 | C[C@@H](NC(=O)c1ccc(NNC(=O)CN2CCN(CC(=O)O)CCN(CC(=O)O)CCN(CC(=O)O)CC2)nc1)C(=O)N1CCC[C@H]1B(O)O [compound 4536] | – | – | – | IC50 [2]: 50 nM; IC50 [3]: 84000 nM
6.9 | – | CC(C)[C@H](NC(=O)CNC(=O)CN1CCN(CC(=O)O)CCN(CC(=O)O)CCN(CC(=O)O)CC1)C(=O)N[C@H](C)C(=O)N1CCC[C@H]1B(O)O [compound 6521, DOTA-Gly-Val-D-Ala-boroPro] | – | – | 6.9 | –
3.2 | 2.9 | N[C@@H](CCCCNC(=O)CN1CCN(CC(=O)O)CCN(CC(=O)O)CCN(CC(=O)O)CC1)C(=O)N1CCC[C@H]1B(O)O [compound 6549, Lys(DOTA)-boroPro] | – | – | – | –
2.4 | 2.4 | C[C@@H](NC(=O)c1ccc(CNC(=O)CN2CCN(CC(=O)O)CCN(CC(=O)O)CCN(CC(=O)O)CC2)nc1)C(=O)N1CCC[C@H]1B(O)O [compound 6556, DOTA-aminomethyl-Nic-D-Ala-boroPro] | – | – | – | –
1.6 | 1.6 | C[C@@H](NC(=O)c1ccc(NC(=O)CN2CCN(CC(=O)O)CCN(CC(=O)O)CCN(CC(=O)O)CC2)cc1)C(=O)N1CCC[C@H]1B(O)O [compound 6572, DOTA-PABA-D-Ala-boroPro] | – | – | – | –
